We go through six compounds from patent US9044520B2, “Compound accumulating in inflammatory site, diagnostic agent containing the compound in labeled state and its precursor compound for labeling” (Nihon Medi-Physics Co., Ltd., priority 2011, dated 2015).

Non-standard residues stand in square brackets, D forms with d. Residues, ends and D or L forms follow the SMILES beside them. *: point of attachment. Benzoyl(4-F) = O=C(c1ccc(F)cc1)*; Nle = CCCC[C@H](N)C(=O)O; For = O=C*

The target in the test is T1, formylated peptide receptor (FPR) (Homo sapiens, UniProt P21462).
T1 sequence (P21462 1-350): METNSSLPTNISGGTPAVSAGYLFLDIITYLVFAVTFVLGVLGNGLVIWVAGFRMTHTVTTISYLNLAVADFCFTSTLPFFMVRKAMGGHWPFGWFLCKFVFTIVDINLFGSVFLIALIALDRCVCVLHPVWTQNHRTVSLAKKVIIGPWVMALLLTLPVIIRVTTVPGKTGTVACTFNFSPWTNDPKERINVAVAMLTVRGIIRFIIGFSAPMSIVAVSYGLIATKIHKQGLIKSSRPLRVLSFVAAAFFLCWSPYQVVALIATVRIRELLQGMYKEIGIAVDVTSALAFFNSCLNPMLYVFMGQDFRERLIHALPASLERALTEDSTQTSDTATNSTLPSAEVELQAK
In words: Binding assay/inhibition assay: binding affinity for formylated peptide receptor (FPR), displacement of [125I] Trp-Lys-Tyr-Met-Val-DMet. Particulars: read-out: Ki (Mean value ± SD). The protocol: Each peptide having a different concentration (DMSO solution, 10 μL), 2 nmol/L [^125I] Trp-Lys-Tyr-Met-Val-DMet (10 μL) as radioligand, and FPR (10 μL) were added to a binding buffer (170 μL) and incubated at 25° C. for 1 hour, followed by collection by filtration (cell harvesters) using a GF/C filter coated with a polylysine buffer. After washing, radioactivity left on the filter was measured using a γ counter. [^125I] Trp-Lys-Tyr-Met-Val-DMet means a positive control having affinity for FPR and was obtained from PerkinElmer Co., Ltd. for use.
*Binding buffer: 50 mmol/L Hepes, pH 7.4, 5 mmol/L MgCl2, 1 mmol/L CaCl2, 0.2% BSA
Wash buffer: 50 mmol/L Hepes, pH 7.4, 500 mmol/L NaCl, 0.1% BSA
Polylysine buffer: Poly-L-lysine hydrobromate 100 mg/wash buffer 100 mL
Ki values in the table were calculated using the following equation (1).
IC50: Calculation from Graph Pad
[L]: Concentration of Radioligand (Adjusted to 0.2 nM)
In the case of `CCCC[C@H](NC(=O)[C@H](Cc1ccccc1)NC(=O)[C@H](CC(C)C)NC(=O)[C@H](CCSC)NC=O)C(=O)N[C@@H](Cc1ccc(O)cc1)C(=O)N[C@H](CCCCNC(=O)c1ccc(F)cc1)C(N)=O` [Peptide 1, formyl-Met-Leu-Phe-Nle-Tyr-DLys-ε([^19F]FB)-NH2] (For-MLF[Nle]Y[dK](Benzoyl(4-F))-NH2), the Ki – broadly, a measure of affinity in units of concentration, obtained from inhibition or displacement – is 0.04 ± 0.04 nM.
For `CCCC[C@H](NC(=O)[C@H](Cc1ccccc1)NC(=O)[C@H](CC(C)C)NC(=O)[C@H](CCSC)NC=O)C(=O)N[C@@H](Cc1ccc(O)cc1)C(=O)N[C@H](CCCCN)C(=O)N[C@H](CCCCNC(=O)c1ccc(F)cc1)C(N)=O` [Peptide 3, formyl-Met-Leu-Phe-Nle-Tyr-DLys-DLys-ε([^19F]FB)-NH2] (For-MLF[Nle]Y[dK][dK](Benzoyl(4-F))-NH2) the value was 0.46 ± 0.07 nM; for `CCCC[C@H](NC=O)C(=O)N[C@@H](CC(C)C)C(=O)N[C@@H](Cc1ccccc1)C(=O)N[C@@H](CCCC)C(=O)N[C@@H](Cc1ccc(O)cc1)C(=O)N[C@H](CCCCN)C(=O)N[C@H](CCCCN)C(=O)N[C@H](CCCCNC(=O)c1ccc(F)cc1)C(N)=O` [Peptide 6, formyl-Nle-Leu-Phe-Nle-Tyr-DLys-DLys-DLys-ε([^19F]FB)-NH2, reference compound] (For-[Nle]LF[Nle]Y[dK][dK][dK](Benzoyl(4-F))-NH2), 21.9 ± 12.7 nM.
`CCCC[C@H](NC=O)C(=O)N[C@@H](CC(C)C)C(=O)N[C@@H](Cc1ccccc1)C(=O)N[C@@H](CCCC)C(=O)N[C@@H](Cc1ccc(O)cc1)C(=O)N[C@H](CCCCNC(=O)c1ccc(F)cc1)C(N)=O` [Peptide 2, formyl-Nle-Leu-Phe-Nle-Tyr-DLys-ε([^19F]FB)-NH2] (For-[Nle]LF[Nle]Y[dK](Benzoyl(4-F))-NH2): the Ki turned out to be 0.4 ± 0.36 nM.
For `CCCC[C@H](NC=O)C(=O)N[C@@H](CC(C)C)C(=O)N[C@@H](Cc1ccccc1)C(=O)N[C@@H](CCCC)C(=O)N[C@@H](Cc1ccc(O)cc1)C(=O)N[C@H](CCCCN)C(=O)N[C@H](CCCCNC(=O)c1ccc(F)cc1)C(N)=O` [Peptide 4, formyl-Nle-Leu-Phe-Nle-Tyr-DLys-DLys-ε([^19F]FB)-NH2] (For-[Nle]LF[Nle]Y[dK][dK](Benzoyl(4-F))-NH2) the value was 1.22 ± 0.4 nM; for `CCCC[C@H](NC(=O)[C@H](Cc1ccccc1)NC(=O)[C@H](CC(C)C)NC(=O)[C@H](CCSC)NC=O)C(=O)N[C@@H](Cc1ccc(O)cc1)C(=O)N[C@H](CCCCNC(=O)c1ccc(F)cc1)C(=O)N[C@H](CCCCN)C(N)=O` [Peptide 5, formyl-Met-Leu-Phe-Nle-Tyr-DLys-ε([^19F]FB)-DLys-NH2] (For-MLF[Nle]Y[dK](Benzoyl(4-F))[dK]-NH2), 0.63 ± 0.14 nM.
